Molecules are shown by their SMILES.

`CC(C)(C)[Si](C)(C)Oc1ccc(C(=O)Oc2ccc(C(=O)O)cn2)cc1C12CC3CC(CC(C3)C1)C2` displayed a melting point of 188 to 190 °C.

On to `C[Si](C)(C)C1(COC(=O)Nc2ccccc2)c2ccccc2-c2ccccc21`, for which the melting point lay within 94 to 96 °C.

For `CS(=O)(=O)Nc1ccc(C(=O)NC(=O)N2CCC(Cc3ccc(F)cc3)CC2)cc1`, the melting point lay in the range of 221 to 222 °C.

For `CC(=O)Nc1cc(C)nn1C`, the melting point fell in the range of 45 to 46 °C.

In turn, `Nc1nc(F)nc2c1ncn2C1OC(CO)C(O)C1F` (centres undefined) returned a melting point of 207 to 209 °C.

`CCCCCCCCCCCCCCCCS[C@H]1CCCO[C@H]1CO` (relative stereo) returned a melting point of 52 to 53 °C.

Take `O=C(O)c1ccc(SCc2c(O[C@H](Cn3ccnc3)c3ccccc3)ccc3c2CCCC3=O)cc1`: the melting point stood at 215 °C.

In turn, `C=C(CN(Cc1ccccc1)Cc1ccccc1)C(=O)OC(C)(C)C` had a melting point of 62 to 63 °C.

With `COc1ccc2c(c1)c(CC(=O)O)c(C)n2C(=O)c1ccccc1`, the melting point lay within 158 to 160 °C.

For the compound `Cc1nn(CC(F)(F)COC(=O)c2cccnc2)c(-c2ccc(F)cc2)c1-c1ccc2c(c1)NC(=O)CO2`, the melting point was in the range of 169 to 172 °C.

As for `Cc1cc(SC2=C(O)CC(CCc3ccco3)(C(C)C)OC2=O)c(C(C)(C)C)cc1CO` (centres undefined), the melting point lay in the range of 64 to 110 °C.

Turning to `CC(=O)NC[C@H]1CN(c2ccc(N3CCN(CCN4CCOCC4)CC3)c(F)c2)C(=O)O1`, the melting point was 150 to 152 °C.

The compound `CCOCc1nc2c(N)nc3cc(OCc4ccccc4)ccc3c2n1CC(C)C` displayed a melting point of 201 to 203 °C.

`COC(=O)c1cc2cc(OC)c(OC)cc2c(-c2ccnc(-n3c(=O)cc(C(=O)N4CCOCC4)c4ccccc43)c2)c1C(=O)OC` registered a melting point of 247 to 249 °C.

For `CCN(CC)C(=O)CCc1nc(-c2cccc(C(F)(F)F)c2)nc2ccccc12`, the melting point came out at 115 °C.

Turning to `CCCN(CCC)c1c([N+](=O)[O-])cc(S(=O)(=O)N(C)SC)cc1[N+](=O)[O-]`, the melting point is 119 to 121 °C.

`Cc1cccc(C)c1NC(=O)CN1CCN(CC(O)CC(c2ccc(F)cc2)c2ccc(F)cc2)C(C(N)=O)C1` (centres undefined) returned a melting point of 110 °C.

Compound `C[C@@H](O)[C@](O)(Cn1cncn1)c1ccc(F)cc1F` (racemic) yielded a melting point of 115 to 117 °C.

The compound `C=CCOC(=O)c1c(C)c(OC)cc(O[Si](C)(C)C(C)(C)C)c1C=O` gave a melting point of 94 to 95 °C.

For `O=C1C2=C(Nc3ccccc3C2)c2ccccc21`, the melting point was above 300 °C.

Turning to `O=C(Nc1ccccc1Cl)Oc1ccc2c(c1)CCCN2`, the melting point is 201 °C.

Compound `O=Cc1c[nH]nc1-c1ccc([N+](=O)[O-])o1` yielded a melting point of 184 to 186 °C.

For the compound `CCN(CC)CCOCCc1ccc2sc(C(N)=O)cc2c1`, the melting point was in the range of 82 to 84 °C.

`CN1C(=O)CC[C@]2(C)c3ccc(-c4ccc(O)c(Cl)c4)cc3CC[C@@H]12` yielded a melting point of 245 °C.

Compound `CC(=O)N1CCc2cc(S(=O)(=O)C[N+](=O)[O-])ccc21` yielded a melting point of 210 °C.

As to `COc1cc(C=O)cc2c1OCCC2`, the melting point worked out at 81 °C.

`O=C(Nc1cccc(OCc2cccnc2)c1)N1CCCC1` yielded a melting point of 138 to 140 °C.

For the compound `CC(=O)N1CCC(Nc2nc3ccccc3n2Cc2ccc(CO)o2)CC1`, the melting point came out at 214 °C.

With `CCOc1c(C(=O)NC2CN3CCC2CC3)cc(Cl)c2c1CCCN2` (centres undefined), the melting point worked out at 160 °C.

`O=C(N1CCCC1)N1Cc2c(-c3ccc(F)cc3)ncn2-c2ccccc21`: the melting point is 217 to 218 °C.

The compound `CCN(CC)c1ccc(-n2c(C(F)(F)F)nn(C)c2=S)cn1` came in with a melting point of 96 to 98 °C.

On to `CCOC(=O)c1cccc(C#CC2(O)CN3CCC2CC3)c1` (centres undefined), for which the melting point is 155 to 156 °C.

Consider `COc1ccc(C=CC(=O)C2C(=O)CCC2=O)cc1O`, for which the melting point was 61 to 62 °C.

Consider `Cc1cc(OCc2ccccc2)c(C)c([N+](=O)[O-])c1`, for which the melting point is 66 to 68 °C.

Compound `O=C(O)/C=C/c1ccc(N2CCC(=O)CC2)cc1` gave a melting point of 215 °C.

For the compound `COC(=O)C(O)(c1ccc(C(F)(F)F)cc1)c1ccc(C(F)(F)F)cc1`, the melting point was 68 °C.

`CN(C)CCC(c1ccc(C(=O)NN)cc1)c1ncc[nH]1` (centres undefined) yielded a melting point of 168 to 170 °C.

`CN1CCCC(Cn2cc(-c3ccccc3)c(O)n2)C1` (centres undefined) registered a melting point of 132 °C.

Consider `COc1ccccc1CSc1c(O)cc(-c2ccccc2)oc1=O`, for which the melting point lay within 152 to 153 °C.

`Nc1ccc(C2=NN=C(c3ccccn3)N(C(=O)c3ccccc3)N2)nc1` came in with a melting point of 223 to 225 °C.

`COP(=O)(OC)C(C)C(NC(=O)OCc1ccccc1)C(=O)N[C@@H](Cc1ccccc1)[C@H](O)C(=O)N1C[C@@H](Cl)C[C@H]1C(=O)NC(C)(C)C` (some centres undefined) returned a melting point of 93 to 100 °C.

As for `COc1cccc2c(=O)c3c(O)cc(OCC(S)CCl)cc3oc12` (centres undefined), the melting point is 125 °C.

Regarding `Cc1c(-c2ccc(OC(F)(F)F)cc2)[nH]c2ccc(OCc3ccccc3)cc12`, the melting point lay within 127 to 128 °C.

`O=C1C(=O)c2ccc(Cl)cc2C2=C1SCC1(CCN(CC(O)Cc3ccccc3)CC1)O2` (centres undefined) registered a melting point of 92 to 96 °C.

`CCC(O)(C(=O)c1ccccc1)c1ccccc1` (centres undefined) showed a melting point of 62 to 68 °C.

For the compound `C=Cc1c(N)nc(-c2ccc(Cl)c(OC)c2F)nc1C(=O)OC`, the melting point was in the range of 145 to 147 °C.

`C=Cc1cccc(N)c1` displayed a melting point of 80 °C.

Compound `O=C(O)c1ccc(NCCc2cccs2)cc1` had a melting point of 161 to 163 °C.

Consider `CC(=O)OC1c2ccc(Cl)cc2CC1S(C)(=O)=O` (centres undefined), for which the melting point worked out at 136 °C.

In general, melting point refers to the temperature, or range, at which the solid turns liquid.

(Values after a melting point compilation (Tetko et al.; mined from patent text by program, amines drawn as free bases though some values may be those of a salt).)
